Measurements from patent US12384769B2, “Heteroaryl-substituted aminoalkyl azole compounds as pesticides” (Elanco Animal Health GmbH, priority 2019, dated 2025).

Assays:
Format in all cases: in vivo
Ctenocephalides felis = Ctenocephalides felis oral test (CTECFE); conditions: 48 h, 100 ppm in cattle blood, after 2 days
Protocol: Ctenocephalides felis—Oral Test (CTECFE)
(§1) Solvent: dimethyl sulfoxide
To produce a suitable preparation of active compound, 10 mg of active compound are dissolved in 0.5 ml solvent, and the concentrate is diluted with cattle blood to the desired concentration.
Approximately 20 adult unfed cat fleas (Ctenocephalides felis) are placed in flea chambers. The blood chamber, sealed with parafilm on the bottom, are filled with cattle blood supplied with compound solution and placed on the gauze covered top of the flea chamber, so that the fleas are able to suck the blood. The blood chamber is heated to 37° C. whereas the flea chamber is kept at room temperature.
After 2 days mortality in % is determined. 100% means all the fleas have been killed; 0% means none of the fleas have been killed.

Boophilus microplus = Boophilus microplus injection test (BOOPMI Injection); conditions: Rhipicephalus microplus, 168 h, injection into adult engorged female ticks, egg deposition after 7 days, read-out: activity (efficacy, infertile eggs); for pest or weed control at 0.02 mg: 20 μg/animal; for pest or weed control at 0.004 mg: 4 μg/animal
Protocol: Boophilus microplus—Injection Test (BOOPMI Injection)
as §1
To produce a suitable preparation of active compound, 10 mg of active compound are dissolved in 0.5 mL solvent, and the concentrate is diluted with solvent to the desired concentration.
Five adult engorged female ticks (Boophilus microplus) are injected with 1 μL compound solution into the abdomen. The ticks are transferred into replica plates and incubated in a climate chamber.
After 7 days egg deposition of fertile eggs is monitored. Eggs where fertility is not visible are stored in a climate chamber till hatching after about 42 days. An efficacy of 100% means all eggs are infertile; 0% means all eggs are fertile.

Diabrotica balteata = Diabrotica balteata spray test; conditions: 168 h, wheat seeds, after 7 days, read-out: activity (efficacy, seedlings grown); for pest or weed control at 160 µg/disc, 500 g/ha: 500 g/ha (=160 μg/well)
Protocol: Diabrotica balteata—Spray Test
Solvent: 78.0 parts by weight of acetone • • 1.5 parts by weight of dimethylformamide
(§2) Emulsifier: alkylarylpolyglycol ether
(§3) To produce a suitable preparation of active compound, 1 part by weight of active compound is mixed with the stated amount of solvent, and the concentrate is diluted with water, containing an emulsifier concentration of 1000 ppm, to the desired concentration. Further test concentrations are prepared by dilution with emulsifier containing water.
Soaked wheat seeds (Triticum aestivum) are placed in a multiple well plate filled with agar and some water and are incubated for 1 day to germinate (5 seeds per well). The germinated wheat seeds are sprayed with a test solution containing the desired concentration of the active ingredient. Afterwards each unit is infected with 10-20 larvae of the banded cucumber beetle (Diabrotica balteata).
After 7 days efficacy in % is determined. 100% means all the seedlings have grown up like in the untreated, uninfected control; 0% means none of the seedlings have grown.

Spodoptera frugiperda = Spodoptera frugiperda spray test; conditions: in Zea mays, 168 h, read-out: activity (mortality)
Protocol: Spodoptera frugiperda—Spray Test
Solvent: 78.0 parts by weight acetone • 1.5 parts by weight dimethylformamide
as §2
as §3, with “solvents” for “solvent,”, “and” for “and the concentrate”
Maize (Zea mays) leaf sections are sprayed with a preparation of the active ingredient of the desired concentration. Once dry, the leaf sections are infested with fall armyworm larvae (Spodoptera frugiperda).
After 7 days mortality in % is determined. 100% means all caterpillars have been killed and 0% means none of the caterpillars have been killed.

[1] = system: Rhipicephalus microplus (strain Parkhurst, resistant against synthetic pyrethroids); test: Rhipicephalus microplus in-vitro contact test, larval cattle tick (BOOPMI Contact); conditions: 5 μg/cm^2 (=500 g/ha), after 48 hours, read-out: activity (efficacy, larvae dead or moribund)
Protocol: Rhipicephalus microplus—in-Vitro Contact Tests Larval Cattle Tick (Strain Parkhurst, Resistant Against Synthetic Pyrethroids) (BOOPMI Contact)
9 mg compound is solved in 1 ml acetone and diluted with acetone to the desired concentration. 250 μL of the test solution is filled in 25 ml glass test tubes and homogeneously distributed on the inner walls by rotation and tilting on a shaking device (2 h at 30 rpm). With a compound concentration of 900 ppm, an inner surface of 44.7 cm^2 and a homogeneous distribution, a dose of 5 μg/cm^2 is achieved.
After the solvent has evaporated, each test tube is filled with 20-50 cattle tick larvae (Rhipicephalus microplus), closed with a perforated lid and incubated in a horizontal position at 85% relative humidity and 27° C. in an incubator. After 48 hours efficacy is determined. The larvae are patted on the ground of the tubes and negative geotactic behaviour is recorded.
An efficacy of 100% means all larvae are dead or moribund; 0% means no larvae are dead or moribund.

Compound	mortality at 100 ppm (Ctenocephalides felis)	pest or weed control at 0.02 mg (Boophilus microplus)	pest or weed control at 100 g/ha (Diabrotica balteata)	pest or weed control at 160 µg/disc, 500 g/ha (Diabrotica balteata)	mortality at 500 g/ha (Spodoptera frugiperda)	pest or weed control at 0.004 mg (Boophilus microplus)	pest or weed control at 5 µg/cm2 [1]	mortality at 100 g/ha (Spodoptera frugiperda)
C[C@H](Nc1nc2cc(Br)cc(Cl)c2o1)c1ncnn1-c1ncccn1 [Example I-010]	100%	100%	80%	100%	100%			
Cc1nc([C@H](C)Nc2nc3cc(C(F)(F)F)cc(C(F)(F)F)c3o2)n(-c2ncccn2)n1 [Example I-012]	100%	100%			100%	100%		
C[C@H](Nc1nc2cc(C(F)(F)F)cc(C(F)(F)F)c2o1)c1ncnn1-c1ccc(C#N)cn1 [Example I-026]	100%	100%		100%	100%	100%	100%	100%
C[C@H](Nc1nc2cc(C(F)(F)F)c(Cl)cc2o1)c1ncnn1-c1ccc(Cl)cn1 [Example I-033]	90%				100%		100%	
C[C@H](Nc1nc2cc(C(F)(F)F)cc(Cl)c2o1)c1ncnn1-c1ncc(Br)s1 [Example I-035, N-{(1S)-1-[1-(5-bromo-1,3-thiazol-2-yl)-1H-1,2,4-triazol-5-yl]ethyl}-7-chloro-5-(trifluoromethyl)-1,3-benzoxazol-2-amine]	100%		100%			80%		
C[C@H](Nc1nc2cc(C(F)(F)F)cc(Cl)c2o1)c1ncnn1-c1cnc(C#N)cn1 [Example I-041, 5-{5-[(1S)-1-{[7-Chlor-5-(trifluormethyl)-1,3-benzoxazol-2-yl]amino}ethyl]-1H-1,2,4-triazol-1-yl}pyrazin-2-carbonitril]	90%		100%				80%	
C[C@H](Nc1nc2cc(C(F)(F)F)cc(Cl)c2o1)c1ncnn1-c1ncc(Br)cn1 [Example I-044, N-{(1S)-1-[1-(5-Brompyrimidin-2-yl)-1H-1,2,4-triazol-5-yl]ethyl}-7-chlor-5-(trifluormethyl)-1,3-benzoxazol-2-amin]	100%		100%			100%	100%	100%
C[C@H](Nc1nc2cc(C(F)(F)F)cc(Cl)c2o1)c1ncnn1-c1nccs1 [Example I-050, 7-Chlor-N-{(1S)-1-[1-(1,3-thiazol-2-yl)-1H-1,2,4-triazol-5-yl]ethyl}-5-(trifluormethyl)-1,3-benzoxazol-2-amin]	90%	80%				80%		
Cc1nc([C@H](C)Nc2nc3cc(C(F)(F)F)cc(Br)c3o2)n(-c2ncccn2)n1 [Example I-053, 7-Bromo-N-{(1S)-1-[3-methyl-1-(pyrimidin-2-yl)-1H-1,2,4-triazol-5-yl]ethyl}-5-(trifluormethyl)-1,3-benzoxazol-2-amin]	100%	100%		100%		100%		
C[C@H](Nc1nc2cc(C(F)(F)F)c(Cl)cc2o1)c1ncnn1-c1ncc(C2COC2)cn1 [Example I-056, 6-Chloro-N-[(1S)-1-{1-[5-(oxetan-3-yl)pyrimidin-2-yl]-1H-1,2,4-triazol-5-yl}ethyl]-5-(trifluoromethyl)-1,3-benzoxazol-2-amine]	100%	100%				80%	80%	
C[C@H](Nc1nc2cc(S(F)(F)(F)(F)F)cc(Cl)c2o1)c1ncnn1-c1ncccn1 [Example I-069, 7-Chlor-5-(pentafluor-lambda^6-sulfanyl)-N-{(1S)-1-[1-(pyrimidin-2-yl)-1H-1,2,4-triazol-5-yl]ethyl}-1,3-benzoxazol-2-amin]	100%		100%			100%	80%	100%
C[C@H](Nc1nc2cc(Cl)c(SC3CC3)cc2o1)c1ncnn1-c1ncccn1 [Example I-072, 5-Chlor-6-(cyclopropylsulfanyl)-N-{(1S)-1-[1-(pyrimidin-2-yl)-1H-1,2,4-triazol-5-yl]ethyl}-1,3-benzoxazol-2-amin]	100%						90%	
CCSc1cc2oc(N[C@@H](C)c3ncnn3-c3ncccn3)nc2cc1Cl [Example I-073, 5-Chor-6-(ethylsulfanoyl)-N-{(1S)-1-[1-(pyrimidin-2-yl)-1H-1,2,4-triazol-5-yl]ethyl}-1,3-benzoxazol-2-amin]	90%	100%					100%	
C[C@H](Nc1nc2cc(C(C)(C)C)cc(Cl)c2o1)c1ncnn1-c1ncccn1 [Example I-075, 5-tert-Butyl-7-chlor-N-{(1S)-1-[1-(pyrimidin-2-yl)-1H-1,2,4-triazol-5-yl]ethyl}-1,3-benzoxazol-2-amin]	80%	100%				100%		
CSc1cc2oc(N[C@@H](C)c3ncnn3-c3ncccn3)nc2cc1Cl [Example I-076, 5-Chlor-6-(methylsulfanyl)-N-{(1S)-1-[1-(pyrimidin-2-yl)-1H-1,2,4-triazol-5-yl]ethyl}-1,3-benzoxazol-2-amin]	100%	100%				100%	90%	
C[C@H](Nc1nc2cc(OC(F)(F)F)cc(Cl)c2o1)c1ncnn1-c1ncc(Br)cn1 [Example I-078, N-{(1S)-1-[1-(5-Brompyrimidin-2-yl)-1H-1,2,4-triazol-5-yl]ethyl}-7-chlor-5-(trifluormethoxy)-1,3-benzoxazol-2-amin]	100%		100%					
C[C@H](Nc1nc2c(C(F)(F)F)cc(Br)cn2n1)c1ncnn1-c1ncccn1 [Example I-095, 6-bromo-N-{(1S)-1-[1-(pyrimidin-2-yl)-1H-1,2,4-triazol-5-yl]ethyl}-8-(trifluoromethyl)[1,2,4]triazolo[1,5-a]pyridin-2-amine]	100%						80%	
